Columns and labels:
SARS CoV-2 = conditions: whole blood or plasma samples collected with the anticoagulant
[1] = test system: hospitalized patients with Covid-19; conditions: WHO Solidarity Trial; cited from earlier work
[2] = test system: adults with mild COVID-19; conditions: cited from earlier work

lithium heparin
inhibition of certain SARS CoV-2 assays (SARS CoV-2): inhibited

Cc1cccc(C)c1OCC(=O)N[C@@H](Cc1ccccc1)[C@@H](O)C[C@H](Cc1ccccc1)NC(=O)[C@H](C(C)C)N1CCCNC1=O [lopinavir]
effect on hospitalized patients with Covid-19 [1]: little or no effect

ivermectin
effect on the duration of symptoms [2]: not have a significant effect

heparin sodium [sodium heparin]
inhibition of certain SARS CoV-2 assays (SARS CoV-2): inhibited

CCN(CCO)CCCC(C)Nc1ccnc2cc(Cl)ccc12 (centres unmarked) [hydroxychloroquine]
effect on hospitalized patients with Covid-19 [1]: little or no effect

Source: patent US20230210890A1, “COMPOSITIONS AND METHODS OF TREATING COVID-19 WITH HEPARIN OR OTHER NEGATIVELY CHARGED MOLECULES” (Siemens Healthcare Diagnostics Inc., priority 2020, published 2023)
